The nature of series [1]: Pharmacokinetic testing in Beagles. The format is in vivo. Here is the method: Experimental purpose: To test the pharmacokinetic properties of the compound of the present disclosure in Beagles.
Experimental materials: Beagles (male, >6 months old, Beijing Marshall Biotechnology Co., Ltd.)
The pharmacokinetic characteristics of the compound in dogs were tested following intravenous injection and oral administration according to a standard protocol. In the experiment, the test compound was prepared as a clear solution for single intravenous injection and single oral administration in dogs. In the case of intravenous injection, the dose was 2 mg/kg, with the vehicle being 5% DMSO/10% Solutol/85% water. In the case of oral administration, the dose was 10 mg/kg, with the vehicle being 5% DMSO/10% Solutol/85% water. Whole blood samples were collected within 48 hours, centrifuged at 3000 g for 15 minutes at 4° C., and the supernatant was separated to obtain plasma samples. 20 times the volume of acetonitrile solution containing internal standard was added to precipitate the protein. The samples were vortexed for 10 minutes and centrifuged at 3220 g for 15 minutes at 4° C. The supernatant was transferred to a 96-well plate and centrifuged at 3220 g for 5 minutes at 4° C. The supernatant was then injected for LC-MS/MS analysis to quantify plasma concentration, and pharmacokinetic parameters were calculated.

Series [2] can be described thus: In vitro liver microsomal stability test, human. The format is in vitro ADME. The conditions noted are these: Human liver microsomes, 1 μM compound, 0.5 mg/mL. Here is the method:
(§1) Liver microsomes: Human and animal microsomes were purchased from Corning or Xenotech and stored in a −80° C. freezer.
(§2) Reduced nicotinamide adenine dinucleotide phosphate (NADPH), supplier: Chem-Impex International, Cat. No.: 00616.
(§3) Stock solution: 10 mM DMSO solution
(§4) Preparation of working concentration: The stock solution was diluted to 100 µM using 100% acetonitrile (organic phase content: 99% acetonitrile, 1% DMSO).
(§5) Two 96-well incubation plates were prepared and named as T60 incubation plate and NCF60 incubation plate.
(§6) 445 μL of microsomal working solution (liver microsomal protein concentration of 0.56 mg/mL) was added to both the T60 incubation plate and the NCF60 incubation plate.
(§7) The two incubation plates were pre-incubated in a 37° C. water bath for approximately 10 minutes.
(§8) After pre-incubation, 5 μL of the test compound or control compound working solution was added to both the T60 incubation plate and the NCF60 incubation plate and mixed well. 50 μL of potassium phosphate buffer per well was added to the NCF60 incubation plate to initiate the reaction. 180 μL of termination solution (acetonitrile solution containing 200 ng/mL tolbutamide and 200 ng/mL labetalol) and 6 μL of NADPH regeneration system working solution were added to a TO termination plate. […]

In series [3] the test system is human large cell lung cancer LU99 subcutaneous xenograft tumor. The experiment in a line: In vivo efficacy test, LU99 subcutaneous xenograft tumor model. Set-up: species or system BALB/c nude mice. The conditions noted are these: for TGI: based on tumor volume on day 29. The protocol:
To evaluate the tumor inhibitory effect of the compounds of the present disclosure on a human large cell lung cancer LU99 subcutaneous xenograft tumor model.
Female BALB/c nude mice were subcutaneously inoculated with the human large cell lung cancer LU99 cell line. After inoculation, the mice were randomly divided into groups based on body weight and tumor volume, with six animals per group, and were administered as described below.
Group 1 (vehicle group): When the tumor volume reached 207±9 mm^3 after inoculation, the mice were administered daily by gavage with the vehicle (5% DMSO/10% Solutol/85% double-distilled water) at a dose of 0.1 mL/10 g.
Group 2 (treatment group): When the tumor volume reached 207±10 mm^3 after inoculation, the mice were administered daily by gavage with the test compound (compound dissolved in 5% DMSO/10% Solutol/85% double-distilled water) at a dose of 12.5 mg/kg.
Group 3 (treatment group): When the tumor volume reached 207±10 mm^3 after inoculation, the mice were administered daily by gavage with the test compound (compound dissolved in 5% DMSO/10% Solutol/85% double-distilled water) at a dose of 25 mg/kg.
Group 4 (treatment group): When the tumor volume reached 207±14 mm^3 after inoculation, the mice were administered daily by gavage with the test compound (compound dissolved in 5% DMSO/10% Solutol/85% double-distilled water) at a dose of 50 mg/kg.
After the experimental grouping, the mice were weighed twice weekly, and the tumor diameters were measured using a vernier caliper. The tumor volume was calculated, and then the tumor growth inhibition (TGI) was calculated. On day 29 after experimental administration, the mice were euthanized and sampled. The calculation formulas are as follows:
Tumor volume=0.5×Length×Width^2
TGI (%)=[1−(Ti−T0)/(Ci−C0)]×100%, where Ti is the average tumor volume of a given administration group on a given day, T0 is the average tumor volume of the administration group at the start of administration, Ci is the average tumor volume of the control group on a given day (the same day as Ti), and C0 is the average tumor volume of the control group at the start of administration.

A short description of series [4]: Pharmacokinetic testing in CD-1 mice. The format is in vivo. Here is the method:
Experimental purpose: To test the pharmacokinetic properties of the compound of the present disclosure in CD-1 mice.
Experimental materials: CD-1 mice (female, 15 to 30 g, 6 to 9 weeks, Beijing Vital River Laboratory Animal Technology Co., Ltd.)
The pharmacokinetic characteristics of the compound in rodents were tested following intravenous injection and oral administration according to a standard protocol. In the experiment, the candidate compound was prepared as a clear solution for single intravenous injection and as a homogeneous suspension for single oral administration in mice. In the case of intravenous injection, the dose was 3 mg/kg, with the vehicle being 5% DMSO/10% Solutol/85% water. In the case of oral administration, the dose was 30 mg/kg, with the vehicle being 0.5% MC (4000 cps)/0.2% Tween-80. Whole blood samples were collected within 24 hours, centrifuged at 3000 g for 15 minutes at 4° C., and the supernatant was separated to obtain plasma samples. 20 times the volume of acetonitrile solution containing internal standard was added to precipitate the protein. The samples were vortexed for 10 minutes and centrifuged at 3220 g for 15 minutes at 4° C. The supernatant was transferred to a 96-well plate and centrifuged at 3220 g for 5 minutes at 4° C. The supernatant was then injected for LC-MS/MS analysis to quantify plasma concentration, and pharmacokinetic parameters were calculated.

Series [5] is described as follows: In vitro liver microsomal stability test, dog. The conditions noted are these: Dog liver microsomes, 1 μM compound, 0.5 mg/mL. Type of series: in vitro ADME. The protocol: as §1, §2, §3, §4, §5, §6, §7, §8
A short description of series [6]: In vitro liver microsomal stability test, rat. To be noted: Rat liver microsomes, 1 μM compound, 0.5 mg/mL. Type of series: in vitro ADME. The protocol:
as §1, §2, §3, §4, §5, §6, §7, §8

In a further series the test system is HCT116 MTAP KO cells. The experiment in a line: In vitro proliferation assay of HCT116 MTAP KO cells. The format is cell-based. The conditions noted are these: 10 days, 3D CellTiter-Glo. The protocol: (§9) McCoy's 5A medium, penicillin/streptomycin antibiotics, purchased from Wisent; fetal bovine serum, purchased from Biosera. 3D CellTiter-Glo (chemiluminescent cell viability assay reagent), purchased from Promega. HCT116 WT cell line, purchased from Nanjing Cobioer Biosciences Co., Ltd. HCT116 MTAP KO cell line, purchased from Horizon Discovery. Envision multilabel plate reader (PerkinElmer).
(§10) HCT116 WT and MTAP KO cells were seeded into an ultra-low attachment 96-well U-bottom plate at a density of 80 μL cell suspension per well containing 1000 HCT116 cells. The cell plate was incubated overnight in a CO2 incubator.
(§11) The test compound was serially diluted 5-fold across eight concentrations using a pipette, ranging from 2 mM to 25.6 nM, and tested in duplicate. 78 μL of medium per well was added to an intermediate plate. Subsequently, 2 μL of the serially diluted compound per well was transferred to the corresponding wells of the intermediate plate and mixed well. […] An additional cell plate was prepared to read the signal value on the day of compound addition, which served as the […] for data analysis.
(§12) The cell plate was added with 100 μL of chemiluminescent cell viability assay reagent per well and incubated at room temperature for 10 minutes to stabilize the luminescent signal. A multilabel microplate reader was used for reading. […]
On the technique in general: ATP-based viability assays read luminescence as a measure of living cells.

In the next series the test system is HCT116 WT cells. Nature of the series: In vitro proliferation assay of HCT116 WT cells. Type of series: cell-based. To be noted: 10 days, 3D CellTiter-Glo. The protocol: as §9, §10, §11, §12

Structures are written as SMILES. pIC50: −log10 of the molar value.

Usually TGI stands for the reduction of tumour growth relative to the control group. The compound `[2H]C([2H])([2H])n1ncc(-c2ccc3c(=O)[nH]nc(CN)c3c2)c1-c1c(F)c(Cl)cc(OC2(C)CC2)c1C#N` [Compound 3A] displayed a Clearance in series [1] (intravenous injection 2 mg/kg) of 4.29 mL/min/kg. Moreover, the “Half-life T1/2” value in series [1] (intravenous injection 2 mg/kg) worked out at 5.90 h; in series [4] (intravenous injection 3 mg/kg), 1.29 h. For the same compound, the “Bioavailability F” value came to 113% in series [1] (oral 10 mg/kg) and 46.8% in series [4] (oral 30 mg/kg). The “Plasma concentration integral AUC0-last” value in series [1] (oral 10 mg/kg) worked out at 91.502 µM·h. In addition, the “Liver microsomal stability CLint” value was found to be 20.4 mL/min/kg in series [2], 47.7 mL/min/kg in series [5] and 53.6 mL/min/kg in series [6]. In addition, the Tumor volume in series [3] (12.5 mg/kg daily by gavage, Day 0) is given as 207 mm^3; in series [3] (12.5 mg/kg daily by gavage, Day 4) it was 253 mm^3; in series [3] (12.5 mg/kg daily by gavage, Day 8), 297 mm^3; in series [3] (12.5 mg/kg daily by gavage, Day 11), 331 mm^3; in series [3] (12.5 mg/kg daily by gavage, Day 15), 382 mm^3; in series [3] (12.5 mg/kg daily by gavage, Day 18) it was 440 mm^3. The Tumor volume in series [3] (12.5 mg/kg daily by gavage, Day 22) is given as 494 mm^3; in series [3] (12.5 mg/kg daily by gavage, Day 25), 565 mm^3; in series [3] (12.5 mg/kg daily by gavage, Day 29), 755 mm^3; in series [3] (25 mg/kg daily by gavage, Day 0), 207 mm^3; in series [3] (25 mg/kg daily by gavage, Day 4), 254 mm^3; in series [3] (25 mg/kg daily by gavage, Day 8), 247 mm^3. For the same compound, the Tumor volume in series [3] (25 mg/kg daily by gavage, Day 11) came out at 240 mm^3; in series [3] (25 mg/kg daily by gavage, Day 15), 238 mm^3; in series [3] (25 mg/kg daily by gavage, Day 18), 248 mm^3; in series [3] (25 mg/kg daily by gavage, Day 22), 282 mm^3; in series [3] (25 mg/kg daily by gavage, Day 25), 363 mm^3; in series [3] (25 mg/kg daily by gavage, Day 29), 491 mm^3. Also, the Tumor volume in series [3] (50 mg/kg daily by gavage, Day 0) amounted to 207 mm^3; in series [3] (50 mg/kg daily by gavage, Day 4) it was 239 mm^3; in series [3] (50 mg/kg daily by gavage, Day 8), 238 mm^3; in series [3] (50 mg/kg daily by gavage, Day 11) it was 209 mm^3; in series [3] (50 mg/kg daily by gavage, Day 15) it was 206 mm^3; in series [3] (50 mg/kg daily by gavage, Day 18) it was 193 mm^3. In addition, the Tumor volume is 226 mm^3 in series [3] (50 mg/kg daily by gavage, Day 22); 273 mm^3 in series [3] (50 mg/kg daily by gavage, Day 25); 412 mm^3 in series [3] (50 mg/kg daily by gavage, Day 29). Also, the figures for the TGI in series [3] (12.5 mg/kg daily by gavage), in series [3] (25 mg/kg daily by gavage) and in series [3] (50 mg/kg daily by gavage) were 66%, 83% and 87%, respectively. Further, in series [4] (intravenous injection 3 mg/kg), the “Clearance Cl” value is reported as 30.0 mL/min/kg. The “Concentration integral AUC0-last” value in series [4] (oral 30 mg/kg) was found to be 16.059 µM·h.

By pIC50 is commonly meant −log10 of the IC50, conventionally taken in molar units. A low value points to a large IC50. Regarding `Cn1ncc(-c2ccc3c(=O)[nH]nc(CN)c3c2)c1-c1c(F)c(Cl)cc(OC2(C)CC2)c1C#N` (single isomer, unassigned) [Compound 3A], the pIC50 with HCT116 MTAP KO cells was 8.13; in the series on HCT116 WT cells it was 5.33.

`Cn1ncc(-c2ccc3c(=O)[nH]nc(CN)c3c2)c1-c1c(F)c(Cl)cc(OC2(C)CC2)c1C#N` (single isomer, unassigned) [Compound 1A]: the pIC50 with HCT116 MTAP KO cells is 8.10; in the series on HCT116 WT cells it was less than 5.00.
